Test results taken from a flash point compilation (Sun et al. 2020).

| flash point | SMILES |
| --- | --- |
| 88.00 °C | CC(=O)OC1CC2CCC1(C)C2(C)C (stereo not given) [(1,7,7-trimethyl-2-bicyclo[2.2.1]heptanyl) acetate] |
| 64.00 °C | CC1(C)C2CC[C@@]1(C)C(=O)C2 [(1R)-1,7,7-trimethylbicyclo[2.2.1]heptan-2-one] |
| 47.00 °C | CC1(C)[C@@H]2CC[C@@]1(C)C(=O)C2 [(1R,4R)-1,7,7-trimethylbicyclo[2.2.1]heptan-2-one] |
| 66.00 °C | CC1(C)[C@@H]2CC[C@]1(C)[C@H](O)C2 [(1S,2R,4R)-1,7,7-trimethylbicyclo[2.2.1]heptan-2-ol] |
| 61.00 °C | CC(=O)OC1CC(C)OC(C)O1 (stereo not given) [(2,6-dimethyl-1,3-dioxan-4-yl) acetate] |
| 54.00 °C | O=[N+]([O-])C(Br)=Cc1ccccc1 [(2-bromo-2-nitroethenyl)benzene] |
| 100.00 °C | COc1ccc(C(=O)c2ccccc2)c(O)c1 [(2-hydroxy-4-methoxyphenyl)-phenylmethanone] |
| 97.00 °C | C=C(C)C1CC=C(C)C(OC(C)=O)C1 (stereo not given) [(2-methyl-5-prop-1-en-2-ylcyclohex-2-en-1-yl) acetate] |
| 108.00 °C | CC(C)=CCC/C(C)=C/CO [(2E)-3,7-dimethylocta-2,6-dien-1-ol] |
| -21.00 °C | C=CC/C=C/C [(4E)-hexa-1,4-diene] |
| 89.00 °C | C=C(C)[C@H]1CC=C(C)C(=O)C1 [(5S)-2-methyl-5-prop-1-en-2-ylcyclohex-2-en-1-one] |
| 207.00 °C | Cc1cn(/C=C/C=O)c(=O)[nH]c1=O [(E)-3-(5-methyl-2,4-dioxopyrimidin-1-yl)prop-2-enal] |
| 23.00 °C | CC/C=C/C#N [(E)-pent-2-enenitrile] |
| 101.00 °C | O=C1C=CCO1 [InChI=1S/C4H4O2/c5-4-2-1-3-6-4/h1-2H,3H2] |
| 59.00 °C | CCN(CC)CCCN [N',N'-diethylpropane-1,3-diamine] |
| 16.00 °C | CN(C)CCCN [N',N'-dimethylpropane-1,3-diamine] |
| 135.00 °C | NCCNCCNCCN [N'-[2-(2-aminoethylamino)ethyl]ethane-1,2-diamine] |
| 76.00 °C | Cc1ccc(N(C)C)cc1 [N,N,4-trimethylaniline] |
| 155.00 °C | CCN(CC)C(=O)c1cccc(C)c1 [N,N-diethyl-3-methylbenzamide] |
| -7.00 °C | CCN(CC)CC [N,N-diethylethanamine] |
| 45.00 °C | CCN(O)CC [N,N-diethylhydroxylamine] |
| 113.00 °C | CCN(CC)C(=O)c1cccnc1 [N,N-diethylpyridine-3-carboxamide] |
| 180.00 °C | c1ccc(N(c2ccccc2)c2ccccc2)cc1 [N,N-diphenylaniline] |
| 177.00 °C | CC(=O)NCCO [N-(2-hydroxyethyl)acetamide] |
| 168.00 °C | CC(=O)Nc1ccc(C)cc1 [N-(4-methylphenyl)acetamide] |
| 280.00 °C | CCCCCCCCCCCCCCCCCC(=O)NCCNC(=O)CCCCCCCCCCCCCCCCC [N-[2-(octadecanoylamino)ethyl]octadecanamide] |
| 110.00 °C | CC(=O)Nc1ccc(C(=O)CCl)cc1 [N-[4-(2-chloroacetyl)phenyl]acetamide] |

| flash point | SMILES |
| --- | --- |
| 59.00 °C | CCC(C)=NO [N-butan-2-ylidenehydroxylamine] |
| 141.00 °C | CCCCN(C(C)=O)c1ccccc1 [N-butyl-N-phenylacetamide] |
| 108.00 °C | ClNc1ccccc1 [N-chloroaniline] |
| 13.00 °C | CCCCNC [N-methylbutan-1-amine] |
| 98.00 °C | CNC=O [N-methylformamide] |
| 174.00 °C | CC(=O)Nc1ccccc1 [N-phenylacetamide] |
| 17.00 °C | CCCNCCC [N-propylpropan-1-amine] |
| 166.00 °C | OCC1CCC(CO)CC1 (stereo not given) [[4-(hydroxymethyl)cyclohexyl]methanol] |
| 9.00 °C | C[Si](C)(C)N[Si](C)(C)C [[dimethyl-(trimethylsilylamino)silyl]methane] |
| -18.00 °C | C#C [acetylene] |
| 52.00 °C | COc1ccccc1 [anisole] |
| 162.00 °C | N#Cc1ccccc1C#N [benzene-1,2-dicarbonitrile] |
| 127.00 °C | Oc1cccc(O)c1 [benzene-1,3-diol] |
| 180.00 °C | O=C(Cl)c1ccc(C(=O)Cl)cc1 [benzene-1,4-dicarbonyl chloride] |
| 165.00 °C | Oc1ccc(O)cc1 [benzene-1,4-diol] |
| -11.00 °C | c1ccccc1 [benzene] |
| 72.00 °C | N#Cc1ccccc1 [benzonitrile] |
| 91.00 °C | CC(=O)OCc1ccccc1 [benzyl acetate] |
| 148.00 °C | O=C(OCc1ccccc1)c1ccccc1 [benzyl benzoate] |
| 210.00 °C | CCCCC(CC)COC(=O)CCCCCCCCC(=O)OCC(CC)CCCC (stereo not given) [bis(2-ethylhexyl) decanedioate] |
| 224.00 °C | CC(C)CCCCCCOC(=O)C1CCCCC1C(=O)OCCCCCCC(C)C (stereo not given) [bis(7-methyloctyl) cyclohexane-1,2-dicarboxylate] |
| 33.00 °C | CC(=O)C=C=O [but-1-ene-1,3-dione] |
| 128.00 °C | OC=CCCO [but-1-ene-1,4-diol] |
| -79.00 °C | C=CCC [but-1-ene] |
| 128.00 °C | OCC=CCO [but-2-ene-1,4-diol] |
| 88.00 °C | CC=CC(=O)O [but-2-enoic acid] |
| -9.00 °C | CCC(C)N (stereo not given) [butan-2-amine] |

| SMILES | flash point |
| --- | --- |
| c1ccc2c(c1)Nc1ccccc1S2 [10H-phenothiazine] | 202.00 °C |
| Cc1ccccc1OP(=O)(Oc1ccccc1)Oc1ccccc1 [(2-methylphenyl) diphenyl phosphate] | 232.00 °C |
| Cl/C=C/CCl [(E)-1,3-dichloroprop-1-ene] | 35.00 °C |
| C/C=C/C=O [(E)-but-2-enal] | 13.00 °C |
| C/C=C/CC#N [(E)-pent-3-enenitrile] | 38.00 °C |
| CSC(C)(C)/C=N/O [(NE)-N-(2-methyl-2-methylsulfanylpropylidene)hydroxylamine] | 118.00 °C |
| NCCCNCCCN [N'-(3-aminopropyl)propane-1,3-diamine] | 79.00 °C |
| CCN(CC)c1ccccc1 [N,N-diethylaniline] | 85.00 °C |
| CN(C)c1ccccc1 [N,N-dimethylaniline] | 63.00 °C |
| CN(C)C(=O)Cl [N,N-dimethylcarbamoyl chloride] | 68.00 °C |
| CN(C)P(=O)(N(C)C)N(C)C [N-[bis(dimethylamino)phosphoryl]-N-methylmethanamine] | 106.00 °C |
| CCC(C)Nc1c([N+](=O)[O-])cc(C(C)(C)C)cc1[N+](=O)[O-] (stereo not given) [N-butan-2-yl-4-tert-butyl-2,6-dinitroaniline] | 36.00 °C |
| CCCCN(CCC)N=O [N-butyl-N-propylnitrous amide] | 94.00 °C |
| CCCC=NO [N-butylidenehydroxylamine] | 58.00 °C |
| CCN(C)N=O [N-ethyl-N-methylnitrous amide] | 76.00 °C |
| CNC [N-methylmethanamine] | -7.00 °C |
| CC(C)NC(C)C [N-propan-2-ylpropan-2-amine] | -1.00 °C |
| CCSC(=O)N(CC)C1CCCCC1 [S-ethyl N-cyclohexyl-N-ethylcarbamothioate] | 139.00 °C |
| CCSC(=O)Cl [S-ethyl chloromethanethioate] | 31.00 °C |
| CCCSC(=O)N(CCC)CCC [S-propyl N,N-dipropylcarbamothioate] | 122.00 °C |
| CCCSC(=O)Cl [S-propyl chloromethanethioate] | 62.00 °C |

| SMILES | flash point |
| --- | --- |
| C#CCOS(=O)OC1CCCCC1Oc1ccc(C(C)(C)C)cc1 (stereo not given) [[2-(4-tert-butylphenoxy)cyclohexyl] prop-2-ynyl sulfite] | 28.00 °C |
| C/C=C/c1ccccc1 [[(E)-prop-1-enyl]benzene] | 52.00 °C |
| CC(=O)OC(C)=O [acetyl acetate] | 49.00 °C |
| CC(=O)Br [acetyl bromide] | 75.00 °C |
| CC(=O)Cl [acetyl chloride] | 4.00 °C |
| CC(=O)OOC(C)=O [acetyl ethaneperoxoate] | 45.00 °C |
| CC(=O)[O][Hg][c]1ccccc1 [acetyloxy(phenyl)mercury] | 60.00 °C |
| Nc1ccccc1 [aniline] | 70.00 °C |
| O=Cc1ccccc1 [benzaldehyde] | 64.00 °C |
| Nc1ccc(N)cc1 [benzene-1,4-diamine] | 155.00 °C |
| Sc1ccccc1 [benzenethiol] | 53.00 °C |
| c1ccc2c(c1)ccc1ncccc12 [benzo[f]quinoline] | 166.00 °C |
| CCCCC(CC)COC(=O)c1ccc(C(=O)OCC(CC)CCCC)cc1 (stereo not given) [bis(2-ethylhexyl) benzene-1,4-dicarboxylate] | 238.00 °C |
| CCCCC(CC)COC(=O)CCCCC(=O)OCC(CC)CCCC (stereo not given) [bis(2-ethylhexyl) hexanedioate] | 196.00 °C |
| CC(C)CCCCCOC(=O)c1ccccc1C(=O)OCCCCCC(C)C [bis(6-methylheptyl) benzene-1,2-dicarboxylate] | 232.00 °C |
| CC(C)CCCCCCCOC(=O)c1ccccc1C(=O)OCCCCCCCC(C)C [bis(8-methylnonyl) benzene-1,2-dicarboxylate] | 232.00 °C |
| C=CC(C)=O [but-3-en-2-one] | -7.00 °C |
| C=CC=C [buta-1,3-diene] | -76.00 °C |
| CCCCO.CCCCO.CCCCO.CCCCO.[Ti] [butan-1-ol;titanium] | 77.00 °C |
| CCC(C)=O [butan-2-one] | -3.00 °C |
